Biological target: T1, N-terminally GST-tagged DLK (catalytic domain amino acid 1-520) (Homo sapiens, UniProt Q12852)
T1 construct: N-terminally GST-tagged DLK (catalytic domain amino acid 1-520); purchased Carna Bioscience
T1 sequence (Q12852 1-520): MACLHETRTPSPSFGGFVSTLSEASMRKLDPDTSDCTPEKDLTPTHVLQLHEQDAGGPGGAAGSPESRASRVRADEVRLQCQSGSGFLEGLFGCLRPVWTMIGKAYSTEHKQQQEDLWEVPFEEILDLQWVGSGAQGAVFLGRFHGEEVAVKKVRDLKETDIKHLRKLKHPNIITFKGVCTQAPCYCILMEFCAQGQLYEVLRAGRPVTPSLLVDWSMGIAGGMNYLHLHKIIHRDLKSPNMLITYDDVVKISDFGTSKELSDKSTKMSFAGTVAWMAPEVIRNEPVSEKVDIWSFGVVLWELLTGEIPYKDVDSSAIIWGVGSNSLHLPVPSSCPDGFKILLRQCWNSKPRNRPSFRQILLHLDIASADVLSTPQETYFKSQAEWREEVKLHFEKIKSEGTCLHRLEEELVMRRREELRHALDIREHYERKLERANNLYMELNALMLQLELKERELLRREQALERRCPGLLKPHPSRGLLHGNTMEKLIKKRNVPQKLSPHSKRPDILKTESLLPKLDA
Assay: DLK TR-FRET inhibition assay
Format: biochemical
Conditions: 5 nM GST-DLK, 40 nM HIS-MKK4 K131M substrate, 30 μM ATP, 60 minutes at ambient temperature
How it was run: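 Phosphorylated MKK4 was quantified by TR-FRET (Eu-labelled anti-phospho-MKK4, D2 anti-HIS; 3 h, 665 and 615 nm emission) after EDTA quench. Reactions held 5 nM GST-tagged DLK catalytic domain (1-520), 40 nM HIS-MKK4 K131M substrate, 30 μM ATP and compound (3-fold series from 20 uM), 60 min, room temperature, pH 7.5.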

Ki [nM] | Compound
4.7 | COCCN(C)[C@@H]1C[C@@H]2[C@H](C1)[C@H]2c1cc(-c2cnc(N)c(C(F)(F)F)c2)nn1C(C)C [compound 291, 5-(1-isopropyl-5-((1R,3s,5S,6r)-3-((2-methoxyethyl)(methyl)amino)bicyclo[3.1.0]hexan-6-yl)-1H-pyrazol-3-yl)-3-(trifluoromethyl) pyridin-2-amine]
4.6 | Nc1ncc(-c2cc([C@H]3[C@@H]4C[C@@H](N5CCOCC5)C[C@@H]43)n(CC3CC3)n2)cc1OC(F)(F)F [compound 292, 5-(1-(cyclopropylmethyl)-5-((1R,3s,5S,6r)-3-morpholinobicyclo [3.1.0]hexan-6-yl)-1H-pyrazol-3-yl)-3-(trifluoromethoxy) pyridin-2-amine]
3 | Nc1ncc(-c2cc([C@H]3[C@@H]4C[C@@H](N5CCOCC5)C[C@@H]43)n(CC(F)F)n2)cc1C(F)(F)F [compound 293, 5-(1-(2,2-difluoroethyl)-5-((1R,3s,5S,6r)-3-morpholinobicyclo [3.1.0]hexan-6-yl)-1H-pyrazol-3-yl)-3-(trifluoromethyl)pyridin-2-amine]
8.9 | CC(C)n1nc(-c2cnc(N)c(C(F)(F)F)c2)cc1[C@H]1[C@@H]2C[C@@H](OC3COC3)C[C@@H]21 [compound 294, 5-(1-isopropyl-5-((1R,3s,5S,6r)-3-(oxetan-3-yloxy)bicyclo[3.1.0]hexan-6-yl)-1H-pyrazol-3-yl)-3-(trifluoromethyl)pyridin-2-amine]
2.4 | Nc1ncc(-c2cc([C@H]3[C@@H]4C[C@H](N5CCOCC5)C[C@@H]43)n(CC3CC3)n2)cc1OC(F)(F)F [compound 295, 5-(1-(cyclopropylmethyl)-5-((1R,3r,5S,6r)-3-morpholinobicyclo [3.1.0]hexan-6-yl)-1H-pyrazol-3-yl)-3-(trifluoromethoxy) pyridin-2-amine]

From patent US9365583B2, “Substituted pyrazoles and uses thereof” (Genentech, Inc., priority 2013, dated 2016)
